Laboratory results published in patent US8349846B2, “Fused pyrimidine derivatives as TRPV3 modulators” (Glenmark Pharmaceuticals, S.A., priority 2008, dated 2013).

Biological target: T1, Human TRPV3 (Homo sapiens, UniProt Q8NET8)
T1 construct: expressed in transfected cells; host or cells: CHO cells (selected with G-418)
T1 sequence (Q8NET8 1-790): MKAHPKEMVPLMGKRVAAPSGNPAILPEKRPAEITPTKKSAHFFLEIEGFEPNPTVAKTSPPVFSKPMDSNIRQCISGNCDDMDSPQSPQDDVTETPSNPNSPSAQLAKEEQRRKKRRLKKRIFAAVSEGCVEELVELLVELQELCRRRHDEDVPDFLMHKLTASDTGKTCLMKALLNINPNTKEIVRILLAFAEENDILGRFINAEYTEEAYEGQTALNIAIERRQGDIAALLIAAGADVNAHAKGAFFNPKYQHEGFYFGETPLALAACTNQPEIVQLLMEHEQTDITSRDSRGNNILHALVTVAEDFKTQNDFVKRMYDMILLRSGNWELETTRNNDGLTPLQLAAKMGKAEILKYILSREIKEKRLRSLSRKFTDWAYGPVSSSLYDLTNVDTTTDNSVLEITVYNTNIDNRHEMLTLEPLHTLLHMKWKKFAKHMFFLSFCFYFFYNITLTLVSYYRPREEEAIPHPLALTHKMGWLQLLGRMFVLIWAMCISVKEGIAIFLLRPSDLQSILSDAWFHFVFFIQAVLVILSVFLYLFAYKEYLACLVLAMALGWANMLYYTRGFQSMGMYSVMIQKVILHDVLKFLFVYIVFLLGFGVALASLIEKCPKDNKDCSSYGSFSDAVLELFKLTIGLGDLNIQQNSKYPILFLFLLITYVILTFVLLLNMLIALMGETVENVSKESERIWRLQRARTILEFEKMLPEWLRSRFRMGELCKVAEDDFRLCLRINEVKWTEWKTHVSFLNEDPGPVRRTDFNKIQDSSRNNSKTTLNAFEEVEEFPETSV
Assay: Screening for TRPV3 antagonist using the 45Calcium uptake assay (inhibition of 2-APB induced cellular uptake of radioactive calcium)
Assay type: cell-based
Details: Human TRPV3 expressing CHO cells, 2-APB 500 μM; for inhibition at 1 µM / inhibition at 10 µM: CHO; for inhibition at 1 µM: read-out: Percentage inhibition at 1.0 μM; for inhibition at 10 µM: read-out: Percentage inhibition at 10.0 μM
Source text: The illustrative examples of the present invention are screened for TRPV3 activity according to a modified procedure described in Tóth, A., Kedei, N., Wang, Y. and Blumberg, P. M. Life Sciences (2003), 73, 487-498. The screening of the compounds can be carried out by other methods and procedures known to a person skilled in the art. Such screening methods may be found in (a) Hu, H.-Z. et al. J. Biol. Chem. (2004), 279, 35741-35747; (b) Smith, G. D. et al. Nature (2002), 418, 186-190; (c) Peier, A. M. et al. Science (2002), 296, 2046-2049.
Screening for TRPV3 Antagonist Using the ^45Calcium Uptake Assay:
The inhibition of TRPV3 receptor activation was followed as inhibition of 2-aminoethxydiphenylborate (2-APB) induced cellular uptake of radioactive calcium. Test compounds were dissolved in dimethyl sulfoxide (DMSO) to prepare 20 mM stock solution and then diluted using plain medium with DMEM/F-12 containing 1.8 mM CaCl2 to get desired concentration. Final concentration of DMSO in the reaction was 0.5% (v/v). Human TRPV3 expressing CHO cells were grown in DMEM/F-12 medium with 10% FBS, 1% penicillin-streptomycin solution, 400 μg/ml of G-418. Cells were seeded 24 h prior to the assay in 96 well plates so as to get ˜50,000 cells per well on the day of experiment. Cells were treated with test compounds for 10 minutes followed by addition of 2-APB at a final concentration of 500 μM and 5 μCi/ml ^45Ca^+2 for 4 minutes. Cells were washed and lysed using buffer containing 1% Triton X-100, 0.1% deoxycholate and 0.1% SDS. Radioactivity in the lysate was measured in Packardt Top count after addition of liquid scintillant. Concentration response curves were plotted as a % of maximal response obtained in the absence of test antagonist. IC50 value was calculated from concentration response curve by nonlinear regression analysis using GraphPad PRISM software.
Percentage inhibition at concentrations of 1.0 μM and 10.0 μM are given in the table along with IC50 (nM) values for selected examples.

| SMILES | inhibition at 1 µM (1.0 μM test compound) | inhibition at 10 µM (10.0 μM test compound) | IC50 | Percentage inhibition at 1.0 μM (1.0 μM test compound) | Percentage inhibition at 10.0 μM (10.0 μM test compound) |
| --- | --- | --- | --- | --- | --- |
| COc1cccc(/C=C/c2nc3ccccn3c(=O)c2-c2cccc(OC(C)C)c2)c1OC1CCCC1 [Example 27, 3-(3-Isopropoxyphenyl)-2-[(E)-2-(2-cyclopentyloxy-3-methoxy)phenylvinyl]-4H-pyrido-[1,2-a]pyrimidin-4-one] | 54.2% | 77.6% | 1000 to 2500 nM |  |  |
| COc1cccc(/C=C/c2nc3ccccn3c(=O)c2-c2ccc(C#N)cc2)c1OC1CCCC1 [Example 28, 4-{2-[(E)-2-(2-Cyclopentyloxy-3-methoxyphenyl)vinyl]-4-oxo-4H-pyrido[1,2-a]-pyrimidin-3-yl}benzonitrile] |  |  | < 500 nM | 83.5% | 94.7% |
| COc1cccc(/C=C/c2nc3ccccn3c(=O)c2-c2ccc(C(=O)O)cc2)c1OC1CCCC1 [Example 29, 4-{4-Oxo-2-[(E)-2-(2-cyclopentyloxy-3-methoxy)phenylvinyl]-4H-pyrido[1,2-a]pyrimidin-3-yl}benzoic acid] | 0% | 0.2% |  |  |  |
| COc1cccc(/C=C/c2nc3ccccn3c(=O)c2-c2ccc([N+](=O)[O-])cc2)c1OC1CCCC1 [Example 30, 2-{(E)-2-[(2-Cyclopentyloxy)-3-methoxyphenyl]vinyl}-3-(4-nitro)phenyl-4H-pyrido[1,2-a]pyrimidin-4-one] | 52% | 76.4% |  |  |  |
| COc1cccc(/C=C/c2nc3ccccn3c(=O)c2-c2cccc(NC(C)=O)c2)c1OC1CCCC1 [Example 31, N-(3-{2-[(E)-2-(2-Cyclopentyloxy-3-methoxy)phenylvinyl]-4-oxo-4H-pyrido[1,2-a]pyrimidin-3-yl}phenyl)acetamide] | 50.4% | 96.2% |  |  |  |
| COc1cccc(/C=C/c2nc3ccccn3c(=O)c2-c2ccc(NC(C)=O)cc2)c1OC1CCCC1 [Example 32, N-(4-{2-[(E)-2-(2-Cyclopentyloxy-3-methoxy)phenylvinyl]-4-Oxo-4H-pyrido[1,2-a]pyrimidin-3-yl}phenyl)acetamide] | 34.2% | 89.6% |  |  |  |
| COc1cccc(/C=C/c2nc3ccccn3c(=O)c2-c2ccc(C(C)=O)cc2)c1OC1CCCC1 [Example 33, 3-(4-Acetylphenyl)-2-[(E)-2-(2-cyclopentyloxy-3-methoxy)phenylvinyl]-4H-pyrido[1,2-a]pyrimidin-4-one] | 78% | 94.3% | < 500 nM |  |  |
| COc1cccc(/C=C/c2nc3ccccn3c(=O)c2-c2ccc(SC)cc2)c1OC1CCCC1 [Example 34, 2-{(E)-2-[(2-Cyclopentyloxy-3-methoxy)phenyl]vinyl}-3-(4-thiomethyl)phenyl-4H-pyrido[1,2-a]pyrimidin-4-one] | 36.8% | 51.3% |  |  |  |

Results, then the compound that gave them:

| inhibition at 1 µM (1.0 μM test compound) | inhibition at 10 µM (10.0 μM test compound) | IC50 | Percentage inhibition at 1.0 μM (1.0 μM test compound) | Percentage inhibition at 10.0 μM (10.0 μM test compound) | SMILES |
| --- | --- | --- | --- | --- | --- |
| 18.4% | 63.3% |  |  |  | COc1cccc(/C=C/c2nc3ccccn3c(=O)c2-c2ccncc2)c1OC1CCCC1 [Example 35, 2-{(E)-2-[2-(Cyclopentyloxy)-3-methoxyphenyl]vinyl}-3-pyridin-4-yl-4H-pyrido[1,2-a]-pyrimidin-4-one] |
| 42.2% | 82.4% | 500 to 1000 nM |  |  | COc1cccc(/C=C/c2nc3ccccn3c(=O)c2-c2ccc(F)nc2)c1OC1CCCC1 [Example 36, 2-{(E)-2-[2-(Cyclopentyloxy-3-methoxy)phenyl]vinyl}-3-(6-fluoro)pyridin-3-yl-4H-pyrido[1,2-a]pyrimidin-4-one] |
| 70.1% | 91.4% |  |  |  | COc1cccc(/C=C/c2nc3ccccn3c(=O)c2-c2ccc3c(c2)OCO3)c1OC1CCCC1 [Example 37, 3-(1,3-Benzodioxol-5-yl)-2-[(E)-2-(2-cyclopentyloxy-3-methoxy)phenylvinyl]-4H-pyrido[1,2-a]pyrimidin-4-one] |
| 55.5% | 83.8% | < 500 nM |  |  | COc1cccc(/C=C/c2nc3ccccn3c(=O)c2-c2ccc3c(c2)OCCO3)c1OC1CCCC1 [Example 38, 2-[(E)-2-(2-Cyclopentyloxy-3-methoxyphenyl)vinyl]-3-(2,3-dihydro-1,4-benzodioxin-6-yl)-4H-pyrido[1,2-a]pyrimidin-4-one] |
| 84.6% | 96.1% | < 500 nM |  |  | COc1cccc(/C=C/c2nc3ccccn3c(=O)c2-c2ccc3ncccc3c2)c1OC1CCCC1 [Example 39, 2-[(E)-2-(2-Cyclopentyloxy-3-methoxy)phenylvinyl]-3-quinolin-6-yl-4H-pyrido[1,2-a]pyrimidin-4-one] |
| 23.1% | 18.7% |  |  |  | COc1cccc(/C=C/c2nc3c(C)cccn3c(=O)c2-c2ccc(C(F)(F)F)cc2)c1OC1CCCC1 [Example 40, 2-{(E)-2-[(2-Cyclopentyloxy-3-methoxy)phenyl]vinyl}-9-methyl-3-(4-trifluoromethyl)phenyl-4H-pyrido[1,2-a]pyrimidin-4-one] |
| 54.8% | 87.6% |  |  |  | COc1cccc(/C=C/c2nc3c(OC)cccn3c(=O)c2-c2ccc(C#N)cc2)c1OC1CCCC1 [Example 41, 4-{2-[(E)-2-(2-Cyclopentyloxy-3-methoxyphenyl)vinyl]-9-methoxy-4-oxo-4H-pyrido[1,2-a]pyrimidin-3-yl}benzonitrile] |
| 0% | 96.8% |  |  |  | COc1cccc(/C=C/c2nc3ccc(Cl)cn3c(=O)c2-c2ccc(C#N)cc2)c1OCC1CC1 [Example 42] |
| 78.7% | 90.2% | < 500 nM |  |  | COc1cccc(/C=C/c2nc3ccc(Cl)cn3c(=O)c2-c2ccc(C#N)cc2)c1OC1CCCC1 [Example 43, 4-{7-Chloro-2-[(E)-2-(2-cyclopentyloxy-3-methoxy)phenylvinyl]-4-oxo-4H-pyrido[1,2-a]pyrimidin-3-yl}benzonitrile] |
